Measurements as given in publication PMC6219506, “Onsite GTP fuelling via DYNAMO1 drives division of mitochondria and peroxisomes” (Nature Communications, 2018).

How the values were obtained:
[1] = molecular target: T1, DYNAMO1 (Cyanidioschyzon merolae, UniProt M1USP1); assay: LC-ESI-MS/MS of nucleotides (nucleoside diphosphate kinase activity); format: biochemical; conditions: 100 nM enzyme, 37 °C, 3 min
T1 construct: gene CYME_CML110C; open reading frame in pGEX6p-1, GST tag cut off with PreScission protease, E. coli XL-1 Blue; 17 kDa; tetramer
T1 sequence (M1USP1 1-153): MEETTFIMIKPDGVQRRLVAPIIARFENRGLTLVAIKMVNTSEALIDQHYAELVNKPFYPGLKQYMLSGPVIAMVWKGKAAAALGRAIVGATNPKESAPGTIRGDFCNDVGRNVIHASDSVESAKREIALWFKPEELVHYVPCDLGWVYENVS

[2] = molecular target: recombinant DYNAMO1 (dynamin-based ring motive-force organizer 1), GST removed (Cyanidioschyzon merolae); assay: SEC; 1 μg purified recombinant DYNAMO1 on a Sepharose 6 10/300 GL column, AKTA prime; standards thyroglobulin, γ-globulin, ovalbumin
[3] = molecular target: T2, DYNAMO1-Dnm1 string (Cyanidioschyzon merolae, UniProt A0A125YLX6); assay: malachite green phosphate release (GTPase activity); format: biochemical; conditions: 20 mM HEPES, pH 7.5, 30 mM KCl, 1 mM MgCl2, 1 mM DTT; 37 °C; DYNAMO1 at half the amount of Dnm1
T2 construct: gene CYME_CME019C; with Nucleoside diphosphate kinase-like protein DYNAMO1

[4] = molecular target: T2, DYNAMO1-Dnm1 string; assay: as above; format: biochemical; conditions: 20 mM HEPES, pH 7.5, 30 mM KCl, 1 mM MgCl2, 1 mM DTT; 37 °C; DYNAMO1 at half the amount of Dnm1; remark: listed apart in the source

T2 sequence (A0A125YLX6 entry or part of it, one chain of several): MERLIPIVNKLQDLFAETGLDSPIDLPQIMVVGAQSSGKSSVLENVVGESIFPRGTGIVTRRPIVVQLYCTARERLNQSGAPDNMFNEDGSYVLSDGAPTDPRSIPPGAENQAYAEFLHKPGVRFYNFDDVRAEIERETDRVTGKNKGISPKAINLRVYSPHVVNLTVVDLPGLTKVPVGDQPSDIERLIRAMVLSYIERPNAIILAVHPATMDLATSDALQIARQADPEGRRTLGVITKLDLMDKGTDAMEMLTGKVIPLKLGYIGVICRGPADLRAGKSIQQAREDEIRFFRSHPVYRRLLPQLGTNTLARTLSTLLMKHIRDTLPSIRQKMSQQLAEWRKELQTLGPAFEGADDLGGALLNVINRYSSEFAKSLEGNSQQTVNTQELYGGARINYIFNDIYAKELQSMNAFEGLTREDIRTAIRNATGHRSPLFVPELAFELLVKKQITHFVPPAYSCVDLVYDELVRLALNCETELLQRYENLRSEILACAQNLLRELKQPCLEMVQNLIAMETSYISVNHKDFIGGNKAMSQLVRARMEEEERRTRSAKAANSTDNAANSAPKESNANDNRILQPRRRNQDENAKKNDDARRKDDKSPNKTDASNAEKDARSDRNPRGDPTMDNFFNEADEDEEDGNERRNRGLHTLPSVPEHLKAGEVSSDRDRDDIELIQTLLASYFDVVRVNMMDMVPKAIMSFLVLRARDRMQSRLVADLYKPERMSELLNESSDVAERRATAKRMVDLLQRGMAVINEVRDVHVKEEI

Question: Which “LC-ESI-MS/MS of nucleotides (nucleoside diphosphate kinase activity)” value ([1]; co-substrate GDP) does the source give for Nc1ncnc2c1ncn2[C@@H]1O[C@H](COP(=O)(O)OP(=O)(O)OP(=O)(O)O)[C@@H](O)[C@H]1O [ATP] here?
Answer: generated GTP upon addition of ATP plus GDP (Fig. 1e, f)

Question: Which stoichiometry N [2] does the source give for “recombinant DYNAMO1 (dynamin-based ring motive-force organizer 1), GST removed (natural protein)” here?
Answer: 4

Question: With Nc1nc2c(ncn2[C@@H]2O[C@H](COP(=O)(O)OP(=O)(O)O)[C@@H](O)[C@H]2O)c(=O)[nH]1 [GDP] as the molecule, how does the “LC-ESI-MS/MS of nucleotides (nucleoside diphosphate kinase activity)” value ([1]; co-substrate ATP) read?
Answer: generated GTP upon addition of ATP plus GDP (Fig. 1e, f)

Question: Which results are given for Nc1nc2c(ncn2[C@@H]2O[C@H](COP(=O)(O)OP(=O)(O)OP(=O)(O)O)[C@@H](O)[C@H]2O)c(=O)[nH]1 [GTP]?
Answer: malachite green phosphate release (GTPase activity) [3]: the GTPase activity of Dnm1 was higher in DYNAMO1-Dnm1 and DYNAMO1 H116D-Dnm1 strings; malachite green phosphate release (GTPase activity) [4]: the GTPase activity of Dnm1 was higher in DYNAMO1-Dnm1 and DYNAMO1 H116D-Dnm1 strings
